Measurements from the kinase profiling compilation of Christmann-Franck et al. (2016).

Tests used:
Assay in all cases: KINOMEscan competition binding
Conditions in all cases: compound 0.1 µM
ROCK1 (human) = ROCK1 (human) (UniProt Q13464)
PAK4 (human) = PAK4 (human) (UniProt O96013)
GSG2 (human) = GSG2 (human) (UniProt Q8TF76)
TIE1 (human) = TIE1 (human) (UniProt P35590)
PTK2B (human) = PTK2B (human) (UniProt Q14289)
TNK2 (human) = TNK2 (human) (UniProt Q07912)
PIK3C2G (human) = PIK3C2G (human) (UniProt O75747)
[1] = test system: FLT3 (human), P36888 [D835H]
[2] = biological target: TYK2 JH2 pseudokinase (human) (UniProt P29597)
MAPK1 (human) = MAPK1 (human) (UniProt P28482)
MAP2K2 (human) = MAP2K2 (human) (UniProt P36507)
[3] = test system: FLT3 (human), P36888 [N841I]
MAP4K5 (human) = MAP4K5 (human) (UniProt Q9Y4K4)
CSNK2A1 (human) = CSNK2A1 (human) (UniProt P68400)
PRKD2 (human) = PRKD2 (human) (UniProt Q9BZL6)
Sequence of PRKD2 (human) (Q9BZL6 whole entry, looked up): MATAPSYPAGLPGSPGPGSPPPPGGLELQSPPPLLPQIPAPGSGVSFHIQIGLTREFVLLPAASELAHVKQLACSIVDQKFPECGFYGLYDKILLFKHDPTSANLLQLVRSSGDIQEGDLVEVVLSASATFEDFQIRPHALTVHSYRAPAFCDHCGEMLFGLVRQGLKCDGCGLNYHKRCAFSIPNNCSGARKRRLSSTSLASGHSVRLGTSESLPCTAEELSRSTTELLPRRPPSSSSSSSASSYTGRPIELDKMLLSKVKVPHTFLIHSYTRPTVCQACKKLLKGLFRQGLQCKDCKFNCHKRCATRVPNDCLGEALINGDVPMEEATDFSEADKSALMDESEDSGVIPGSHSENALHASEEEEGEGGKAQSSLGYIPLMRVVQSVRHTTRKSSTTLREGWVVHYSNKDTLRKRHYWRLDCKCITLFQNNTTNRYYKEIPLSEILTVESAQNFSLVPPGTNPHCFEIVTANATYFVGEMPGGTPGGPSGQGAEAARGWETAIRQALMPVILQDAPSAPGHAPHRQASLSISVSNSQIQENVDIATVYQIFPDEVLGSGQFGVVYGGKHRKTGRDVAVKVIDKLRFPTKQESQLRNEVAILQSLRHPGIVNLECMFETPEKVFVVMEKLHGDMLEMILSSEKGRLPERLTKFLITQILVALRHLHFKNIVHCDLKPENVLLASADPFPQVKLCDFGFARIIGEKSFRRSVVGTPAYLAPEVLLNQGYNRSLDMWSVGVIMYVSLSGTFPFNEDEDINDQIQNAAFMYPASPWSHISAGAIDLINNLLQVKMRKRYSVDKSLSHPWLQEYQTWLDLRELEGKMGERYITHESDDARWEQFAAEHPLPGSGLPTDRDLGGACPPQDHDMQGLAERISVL

CSNK1D (human) = CSNK1D (human) (UniProt P48730)
MAPK7 (human) = MAPK7 (human) (UniProt Q13164)
ERBB3 (human) = ERBB3 (human) (UniProt P21860)
[4] = test system: PIK3CA (human), P42336 [M1043I]
CAMK2D (human) = CAMK2D (human) (UniProt Q13557)
SIK1 (human) = SIK1 (human) (UniProt P57059)
Sequence of SIK1 (human) (P57059 whole entry, looked up): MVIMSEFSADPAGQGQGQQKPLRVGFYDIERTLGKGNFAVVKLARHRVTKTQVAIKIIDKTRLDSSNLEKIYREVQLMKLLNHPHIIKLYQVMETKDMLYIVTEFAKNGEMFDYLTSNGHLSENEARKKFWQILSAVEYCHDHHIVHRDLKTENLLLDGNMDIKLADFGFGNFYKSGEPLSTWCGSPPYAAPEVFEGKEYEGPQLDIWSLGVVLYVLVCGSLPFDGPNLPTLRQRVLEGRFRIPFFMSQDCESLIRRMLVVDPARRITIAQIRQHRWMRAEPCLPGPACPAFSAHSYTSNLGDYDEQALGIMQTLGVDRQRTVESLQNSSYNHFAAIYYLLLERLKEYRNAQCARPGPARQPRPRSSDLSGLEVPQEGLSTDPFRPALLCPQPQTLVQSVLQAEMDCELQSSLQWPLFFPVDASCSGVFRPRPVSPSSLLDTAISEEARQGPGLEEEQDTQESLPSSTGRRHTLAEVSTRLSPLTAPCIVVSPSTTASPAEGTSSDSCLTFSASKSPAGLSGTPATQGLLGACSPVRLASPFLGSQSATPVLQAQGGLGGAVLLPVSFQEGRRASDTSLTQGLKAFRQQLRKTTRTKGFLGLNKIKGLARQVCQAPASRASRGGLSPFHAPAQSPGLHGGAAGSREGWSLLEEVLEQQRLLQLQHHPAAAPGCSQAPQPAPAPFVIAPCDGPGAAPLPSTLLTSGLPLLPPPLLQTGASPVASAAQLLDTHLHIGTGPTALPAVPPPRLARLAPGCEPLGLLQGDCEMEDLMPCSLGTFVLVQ

STK35 (human) = STK35 (human) (UniProt Q8TDR2)
TGFBR2 (human) = TGFBR2 (human) (UniProt P37173)
CLK4 (human) = CLK4 (human) (UniProt Q9HAZ1)
Sequence of CLK4 (human) (Q9HAZ1 whole entry, looked up): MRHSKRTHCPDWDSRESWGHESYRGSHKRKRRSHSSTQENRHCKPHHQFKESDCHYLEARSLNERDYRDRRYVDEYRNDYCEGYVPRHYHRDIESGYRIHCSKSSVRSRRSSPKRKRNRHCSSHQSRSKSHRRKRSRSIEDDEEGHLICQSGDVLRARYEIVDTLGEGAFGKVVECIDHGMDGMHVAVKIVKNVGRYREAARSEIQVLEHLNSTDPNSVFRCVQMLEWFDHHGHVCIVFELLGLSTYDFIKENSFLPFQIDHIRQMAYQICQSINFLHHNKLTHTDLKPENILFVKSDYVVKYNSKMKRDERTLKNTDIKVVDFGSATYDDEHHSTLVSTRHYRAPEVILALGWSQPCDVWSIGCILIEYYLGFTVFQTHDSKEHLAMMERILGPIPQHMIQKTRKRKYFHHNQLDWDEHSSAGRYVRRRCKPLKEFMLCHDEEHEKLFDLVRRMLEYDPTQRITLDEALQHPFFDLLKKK

ADCK4 (human) = ADCK4 (human) (UniProt Q96D53)
EPHA2 (human) = EPHA2 (human) (UniProt P29317)
[5] = test system: EGFR (human), P00533 [G719C]
RPS6KA6 KD1 (human) = RPS6KA6 KD1 (human) (UniProt Q9UK32)
[6] = biological target: TYK2 JH1 catalytic (human) (UniProt P29597)
RAF1 (human) = RAF1 (human) (UniProt P04049)
TAOK3 (human) = TAOK3 (human) (UniProt Q9H2K8)
TAOK1 (human) = TAOK1 (human) (UniProt Q7L7X3)
CPK1 (P.falciparum) = test system: CPK1 (P.falciparum)
[7] = biological target: JAK1 JH1 catalytic (human) (UniProt P23458)
CAMKK1 (human) = CAMKK1 (human) (UniProt Q8N5S9)
MARK2 (human) = MARK2 (human) (UniProt Q7KZI7)
Sequence of MARK2 (human) (Q7KZI7 whole entry, looked up): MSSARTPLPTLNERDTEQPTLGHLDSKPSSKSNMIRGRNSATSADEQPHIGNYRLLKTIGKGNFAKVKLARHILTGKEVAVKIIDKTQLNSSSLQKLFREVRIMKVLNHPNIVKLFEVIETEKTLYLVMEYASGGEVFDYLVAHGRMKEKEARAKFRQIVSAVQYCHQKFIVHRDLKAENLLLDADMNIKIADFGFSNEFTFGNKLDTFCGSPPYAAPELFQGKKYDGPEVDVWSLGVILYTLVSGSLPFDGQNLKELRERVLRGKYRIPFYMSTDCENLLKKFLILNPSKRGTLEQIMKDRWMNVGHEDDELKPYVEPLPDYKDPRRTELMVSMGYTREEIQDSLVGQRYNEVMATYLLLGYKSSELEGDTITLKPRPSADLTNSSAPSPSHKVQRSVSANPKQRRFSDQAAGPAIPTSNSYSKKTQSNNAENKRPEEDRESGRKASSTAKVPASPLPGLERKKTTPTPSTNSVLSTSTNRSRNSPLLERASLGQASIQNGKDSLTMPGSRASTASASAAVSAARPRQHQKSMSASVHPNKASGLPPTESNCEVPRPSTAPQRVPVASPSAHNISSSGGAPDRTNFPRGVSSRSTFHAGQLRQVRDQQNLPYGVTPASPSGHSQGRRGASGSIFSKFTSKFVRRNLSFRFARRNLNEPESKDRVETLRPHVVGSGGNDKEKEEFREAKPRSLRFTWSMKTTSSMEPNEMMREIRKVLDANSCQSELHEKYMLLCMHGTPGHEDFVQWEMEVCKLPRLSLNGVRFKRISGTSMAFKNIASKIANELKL

ULK1 (human) = ULK1 (human) (UniProt O75385)
SGK1 (human) = SGK1 (human) (UniProt O00141)
MAPK3 (human) = MAPK3 (human) (UniProt P27361)
NEK10 (human) = NEK10 (human) (UniProt Q6ZWH5)

Measured: kinase still bound, per cent of control

Sequence of TNK2 (human) (Q07912 whole entry, looked up): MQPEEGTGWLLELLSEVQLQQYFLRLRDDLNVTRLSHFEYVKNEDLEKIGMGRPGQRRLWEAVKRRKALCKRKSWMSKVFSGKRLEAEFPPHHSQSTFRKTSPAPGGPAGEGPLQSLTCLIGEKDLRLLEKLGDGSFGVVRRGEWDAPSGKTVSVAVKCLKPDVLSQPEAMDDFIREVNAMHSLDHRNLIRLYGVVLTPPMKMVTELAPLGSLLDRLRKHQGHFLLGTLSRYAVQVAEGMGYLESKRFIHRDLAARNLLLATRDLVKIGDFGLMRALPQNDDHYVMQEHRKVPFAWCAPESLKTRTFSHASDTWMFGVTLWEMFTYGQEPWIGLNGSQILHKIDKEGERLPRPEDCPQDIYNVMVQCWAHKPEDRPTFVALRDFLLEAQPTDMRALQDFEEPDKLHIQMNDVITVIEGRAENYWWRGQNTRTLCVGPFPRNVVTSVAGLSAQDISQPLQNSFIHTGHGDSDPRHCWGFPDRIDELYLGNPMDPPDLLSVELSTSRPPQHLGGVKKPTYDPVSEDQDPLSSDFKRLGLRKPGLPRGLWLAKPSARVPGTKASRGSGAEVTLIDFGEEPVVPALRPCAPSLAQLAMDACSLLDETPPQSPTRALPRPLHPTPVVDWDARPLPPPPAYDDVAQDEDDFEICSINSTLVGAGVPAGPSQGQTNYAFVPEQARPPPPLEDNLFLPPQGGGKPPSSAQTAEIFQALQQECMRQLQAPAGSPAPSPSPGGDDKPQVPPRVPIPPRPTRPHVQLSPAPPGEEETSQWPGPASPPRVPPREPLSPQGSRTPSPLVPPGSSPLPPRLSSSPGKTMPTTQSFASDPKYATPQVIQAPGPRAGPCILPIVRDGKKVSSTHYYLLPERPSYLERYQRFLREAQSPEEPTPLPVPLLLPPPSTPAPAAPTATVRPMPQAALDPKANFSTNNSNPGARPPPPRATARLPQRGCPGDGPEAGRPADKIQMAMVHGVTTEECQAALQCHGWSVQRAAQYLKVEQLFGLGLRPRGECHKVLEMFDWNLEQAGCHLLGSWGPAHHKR
Sequence of GSG2 (human) (Q8TF76 whole entry, looked up): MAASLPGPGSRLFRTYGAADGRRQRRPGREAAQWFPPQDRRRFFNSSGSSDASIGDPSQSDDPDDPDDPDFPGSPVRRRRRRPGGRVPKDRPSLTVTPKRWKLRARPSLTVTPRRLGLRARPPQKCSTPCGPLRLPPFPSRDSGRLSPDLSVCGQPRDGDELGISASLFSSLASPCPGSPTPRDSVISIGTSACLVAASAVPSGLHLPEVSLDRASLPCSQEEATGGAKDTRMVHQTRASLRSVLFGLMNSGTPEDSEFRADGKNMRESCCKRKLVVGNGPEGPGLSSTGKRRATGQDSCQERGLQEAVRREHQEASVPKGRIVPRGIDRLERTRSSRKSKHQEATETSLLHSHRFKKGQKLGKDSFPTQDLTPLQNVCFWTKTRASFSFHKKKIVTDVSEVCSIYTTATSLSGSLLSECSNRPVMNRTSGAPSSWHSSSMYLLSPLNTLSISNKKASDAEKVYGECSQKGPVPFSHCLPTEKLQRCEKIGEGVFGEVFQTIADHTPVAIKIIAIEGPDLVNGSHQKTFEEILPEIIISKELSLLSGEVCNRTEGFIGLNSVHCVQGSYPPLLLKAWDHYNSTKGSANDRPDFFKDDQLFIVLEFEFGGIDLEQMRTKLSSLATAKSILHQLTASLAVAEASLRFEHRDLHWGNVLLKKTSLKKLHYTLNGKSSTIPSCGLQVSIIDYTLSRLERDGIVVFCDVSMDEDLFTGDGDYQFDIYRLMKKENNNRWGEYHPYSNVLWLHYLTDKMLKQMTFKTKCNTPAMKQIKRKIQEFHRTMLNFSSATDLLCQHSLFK

CCc1ccc(C(=O)Nc2cc(CN3CCN(C)CC3)cc(C(F)(F)F)c2)cc1C#Cc1cnc2ccnn2c1
69%: CAMKK1 (human)
86%: ERBB3 (human)
96%: TNK2 (human)
80%: PAK4 (human) | EPHA2 (human)
77%: CSNK1D (human)
93%: SGK1 (human)
83%: ROCK1 (human) | [1]
57%: RAF1 (human)
51%: TIE1 (human)
90%: PTK2B (human)
75%: GSG2 (human)
78%: CAMK2D (human)
100%: all other assays above
